From patent US11306078B2, “Piperidine CXCR7 receptor modulators” (IDORSIA PHARMACEUTICALS LTD., priority 2016, dated 2022)

Target: human chemokine receptor CXCR7 (Homo sapiens (Human), UniProt P25106)
Test: Tango CXCR7-bla U2OS beta-arrestin recruitment assay (beta-lactamase reporter, FRET), antagonism of CXCL12/SDF1-α;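 also: compounds preincubated 15 min before CXCL12 addition, then 22 h at 37 °C, FRET emission ratio read with CCF4-AM substrate after 2 h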
Assay type: cell-based
Details: antagonistic effect on CXCR7; Tango CXCR7-bla U2OS cells, CXCL12/SDF1-α at its EC80

human chemokine receptor CXCR7, sequence (P25106 whole entry): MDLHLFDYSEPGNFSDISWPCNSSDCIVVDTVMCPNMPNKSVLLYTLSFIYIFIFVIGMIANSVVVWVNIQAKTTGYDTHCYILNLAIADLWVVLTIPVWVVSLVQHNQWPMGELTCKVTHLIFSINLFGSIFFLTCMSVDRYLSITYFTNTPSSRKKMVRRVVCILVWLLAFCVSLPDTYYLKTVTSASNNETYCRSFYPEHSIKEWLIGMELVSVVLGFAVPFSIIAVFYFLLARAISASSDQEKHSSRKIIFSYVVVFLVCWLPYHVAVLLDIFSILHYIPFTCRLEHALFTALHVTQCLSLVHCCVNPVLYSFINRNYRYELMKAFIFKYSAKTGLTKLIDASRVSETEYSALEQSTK

Row | IC50 [nM] | Structure (SMILES)
1 | 445 | CC(CF)NC(=O)[C@@H]1CN(C2CCCCC2)CC[C@H]1NC(=O)c1cc(-c2ccc(F)cc2F)on1 (relative stereo) [Example 1.082, (3R*,4R*)-1-Cyclohexyl-4-{[5-(2,4-difluoro-phenyl)-isoxazole-3-carbonyl]-amino}-piperidine-3-carboxylic acid ((1RS)-2-fluoro-1-methyl-ethyl)-amide]
2 | 268 | Cc1nnc(C(C)NC(=O)[C@@H]2CN(C3CCCCC3)CC[C@H]2NC(=O)c2cc(-c3ccc(F)cc3F)on2)o1 (relative stereo) [Example 1.085, (3R*,4R*)-1-Cyclohexyl-4-{[5-(2,4-difluoro-phenyl)-isoxazole-3-carbonyl]-amino}-piperidine-3-carboxylic acid [(1RS)-1-(5-methyl-[1,3,4]oxadiazol-2-yl)-ethyl]-amide]
3 | 154 | CC(NC(=O)[C@@H]1CN(C2CCCCC2)CC[C@H]1NC(=O)c1cc(-c2ccc(F)cc2F)on1)c1ncc(F)cc1F (relative stereo) [Example 1.086, (3R*,4R*)-1-Cyclohexyl-4-{[5-(2,4-difluoro-phenyl)-isoxazole-3-carbonyl]-amino}-piperidine-3-carboxylic acid [(1RS)-1-(3,5-difluoro-pyridin-2-yl)-ethyl]-amide]
4 | 472 | O=C(N[C@@H]1CCN(C2CCCCC2)C[C@H]1C(=O)N1CCC(c2ccccn2)C1)c1cc(-c2ccc(F)cc2F)on1 (relative stereo) [Example 1.089, 5-(2,4-Difluoro-phenyl)-isoxazole-3-carboxylic acid [(3R*,4R*)-1-cyclohexyl-3-((3RS)-3-pyridin-2-yl-pyrrolidine-1-carbonyl)-piperidin-4-yl]-amide]
5 | 1 | C[C@@H](NC(=O)[C@@H]1CN(C2CCCCC2)CC[C@H]1NC(=O)c1cc(-c2ccc(F)cc2F)on1)c1ncccc1F (relative stereo) [Example 1.092, (3R*,4R*)-1-Cyclohexyl-4-{[5-(2,4-difluoro-phenyl)-isoxazole-3-carbonyl]-amino}-piperidine-3-carboxylic acid [(R)-1-(3-fluoro-pyridin-2-yl)-ethyl]-amide]
6 | 867 | C[C@@H](NC(=O)[C@@H]1CN(C2CCCCC2)CC[C@H]1NC(=O)c1cc(-c2ccc(F)cc2F)on1)C(C)(C)C (relative stereo) [Example 1.093, (3R*,4R*)-1-Cyclohexyl-4-{[5-(2,4-difluoro-phenyl)-isoxazole-3-carbonyl]-amino}-piperidine-3-carboxylic acid ((R)-1,2,2-trimethyl-propyl)-amide]
7 | 100 | C[C@@H](NC(=O)[C@@H]1CN(C2CCCCC2)CC[C@H]1NC(=O)c1cc(-c2ccc(F)cc2F)on1)c1ncc(F)cn1 (relative stereo) [Example 1.094, (3R*,4R*)-1-Cyclohexyl-4-{[5-(2,4-difluoro-phenyl)-isoxazole-3-carbonyl]-amino}-piperidine-3-carboxylic acid [(R)-1-(5-fluoro-pyrimidin-2-yl)-ethyl]-amide]
8 | 68 | C[C@@H](NC(=O)[C@@H]1CN(C2CCCCC2)CC[C@H]1NC(=O)c1cn(-c2ccc(F)cc2F)nn1)c1ccccn1 (relative stereo) [Example 1.117, (3R*,4R*)-1-Cyclohexyl-4-{[1-(2,4-difluoro-phenyl)-1H-[1,2,3]triazole-4-carbonyl]-amino}-piperidine-3-carboxylic acid ((R)-1-pyridin-2-yl-ethyl)-amide]
9 | 36 | C[C@@H](NC(=O)[C@@H]1CN(C2CCCC2)CC[C@H]1NC(=O)c1cn(-c2ccc(F)cc2F)nn1)c1ccccn1 (relative stereo) [Example 1.118, (3R*,4R*)-1-Cyclopentyl-4-{[1-(2,4-difluoro-phenyl)-1H-[1,2,3]triazole-4-carbonyl]-amino}-piperidine-3-carboxylic acid ((R)-1-pyridin-2-yl-ethyl)-amide]
10 | 10 | C[C@@H](NC(=O)[C@@H]1CN(C2CCCC2)CC[C@H]1NC(=O)c1cc(-c2c(F)cc(F)cc2F)on1)c1ccccn1 (relative stereo) [Example 1.122, (3R*,4R*)-1-Cyclopentyl-4-{[5-(2,4,6-trifluoro-phenyl)-isoxazole-3-carbonyl]-amino}-piperidine-3-carboxylic acid ((R)-1-pyridin-2-yl-ethyl)-amide]
11 | 81 | C[C@@H](NC(=O)[C@@H]1CN(C2CCCCC2)CC[C@H]1NC(=O)c1cc(-c2ccc(F)cc2F)no1)c1ccccn1 (relative stereo) [Example 1.125, (3R*,4R*)-1-Cyclohexyl-4-{[3-(2,4-difluoro-phenyl)-isoxazole-5-carbonyl]-amino}-piperidine-3-carboxylic acid ((R)-1-pyridin-2-yl-ethyl)-amide]
12 | 49 | C[C@@H](NC(=O)[C@@H]1CN(C2CCCC2)CC[C@H]1NC(=O)c1cc(-c2ccc(F)cc2F)no1)c1ccccn1 (relative stereo) [Example 1.126, (3R*,4R*)-1-Cyclopentyl-4-{[3-(2,4-difluoro-phenyl)-isoxazole-5-carbonyl]-amino}-piperidine-3-carboxylic acid ((R)-1-pyridin-2-yl-ethyl)-amide]

More lines, now with the values behind:

Row | Structure (SMILES) | IC50 [nM]
13 | CC(NC(=O)[C@@H]1CN(C2CCCCC2)CC[C@H]1NC(=O)c1cc(-c2ccc(F)cc2F)on1)C1CCC1 (relative stereo) [Example 1.078, (3R*,4R*)-1-Cyclohexyl-4-{[5-(2,4-difluoro-phenyl)-isoxazole-3-carbonyl]-amino}-piperidine-3-carboxylic acid ((1RS)-1-cyclobutyl-ethyl)-amide] | 193
14 | CCOCC(C)NC(=O)[C@@H]1CN(C2CCCCC2)CC[C@H]1NC(=O)c1cc(-c2ccc(F)cc2F)on1 (relative stereo) [Example 1.083, (3R*,4R*)-1-Cyclohexyl-4-{[5-(2,4-difluoro-phenyl)-isoxazole-3-carbonyl]-amino}-piperidine-3-carboxylic acid ((1RS)-2-ethoxy-1-methyl-ethyl)-amide] | 76
15 | CC1(NC(=O)[C@@H]2CN(C3CCCCC3)CC[C@H]2NC(=O)c2cc(-c3ccc(F)cc3F)on2)CCOC1 (relative stereo) [Example 1.084, (3R*,4R*)-1-Cyclohexyl-4-{[5-(2,4-difluoro-phenyl)-isoxazole-3-carbonyl]-amino}-piperidine-3-carboxylic acid ((3RS)-3-methyl-tetrahydro-furan-3-yl)-amide] | 223
16 | CC1(NC(=O)[C@@H]2CN(C3CCCCC3)CC[C@H]2NC(=O)c2cc(-c3ccc(F)cc3F)on2)CC(F)(F)C1 (relative stereo) [Example 1.087, rac-(3R*,4R*)-1-Cyclohexyl-4-{[5-(2,4-difluoro-phenyl)-isoxazole-3-carbonyl]-amino}-piperidine-3-carboxylic acid (3,3-difluoro-1-methyl-cyclobutyl)-amide] | 943
17 | C[C@@H](NC(=O)[C@@H]1CN(C2CCCCC2)CC[C@H]1NC(=O)c1cc(-c2ccc(F)cc2F)on1)C1CCC1 (relative stereo) [Example 1.091, (3R*,4R*)-1-Cyclohexyl-4-{[5-(2,4-difluoro-phenyl)-isoxazole-3-carbonyl]-amino}-piperidine-3-carboxylic acid ((R)-1-cyclobutyl-ethyl)-amide] | 103
18 | C[C@@H]1CCC[C@H]1N1CC[C@@H](NC(=O)c2cn(-c3ccc(F)cc3F)nn2)[C@H](C(=O)N(C)C)C1 (relative stereo) [Example 1.098, (3R*,4R*)-4-{[1-(2,4-Difluoro-phenyl)-1H-[1,2,3]triazole-4-carbonyl]-amino}-1-((1RS,2RS)-2-Methyl-cyclopentyl)-piperidine-3-carboxylic acid dimethylamide] | 276
19 | C[C@@H]1CCC[C@H]1N1CC[C@@H](NC(=O)c2cc(-c3c(F)cc(F)cc3F)on2)[C@H](C(=O)N(C)C)C1 (relative stereo) [Example 1.101, (3R*,4R*)-1-((1RS,2RS)-2-Methyl-cyclopentyl)-4-{[5-(2,4,6-trifluoro-phenyl)-isoxazole-3-carbonyl]-amino}-piperidine-3-carboxylic acid dimethylamide] | 45
20 | C[C@@H]1CCC[C@H]1N1CC[C@@H](NC(=O)c2cc(-c3c(F)cc(F)cc3F)on2)[C@H](C(=O)N2CCC2)C1 (relative stereo) [Example 1.108, 5-(2,4,6-Trifluoro-phenyl)-isoxazole-3-carboxylic acid [(3R*,4R*)-3-(azetidine-1-carbonyl)-1-((1RS,2RS)-2-methyl-cyclopentyl)-piperidin-4-yl]-amide] | 581
21 | COCC(C)(C)NC(=O)[C@@H]1CN([C@@H]2CCC[C@H]2C)CC[C@H]1NC(=O)c1cc(-c2c(F)cc(F)cc2F)on1 (relative stereo) [Example 1.114, (3R*,4R*)-1-((1RS,2RS)-2-Methyl-cyclopentyl)-4-{[5-(2,4,6-trifluoro-phenyl)-isoxazole-3-carbonyl]-amino}-piperidine-3-carboxylic acid (2-methoxy-1,1-dimethyl-ethyl)-amide] | 626
22 | C[C@@H](NC(=O)[C@@H]1CN(CC2CC2)CC[C@H]1NC(=O)c1cn(-c2ccc(F)cc2F)nn1)c1ccccn1 (relative stereo) [Example 1.119, (3R*,4R*)-1-Cyclopropylmethyl-4-{[1-(2,4-difluoro-phenyl)-1H-[1,2,3]triazole-4-carbonyl]-amino}-piperidine-3-carboxylic acid ((R)-1-pyridin-2-yl-ethyl)-amide] | 146
23 | C[C@@H](NC(=O)[C@@H]1CN(CC2CC2)CC[C@H]1NC(=O)c1cc(-c2c(F)cc(F)cc2F)on1)c1ccccn1 (relative stereo) [Example 1.123, (3R*,4R*)-1-Cyclopropylmethyl-4-{[5-(2,4,6-trifluoro-phenyl)-isoxazole-3-carbonyl]-amino}-piperidine-3-carboxylic acid ((R)-1-pyridin-2-yl-ethyl)-amide] | 15
24 | C[C@@H]1CCC[C@H]1N1CC[C@@H](NC(=O)c2cc(-c3c(F)cc(F)cc3F)on2)[C@H](C(=O)N[C@H](C)c2ccccn2)C1 (relative stereo) [Example 1.124, (3R*,4R*)-1-((1RS,2RS)-2-Methyl-cyclopentyl)-4-{[5-(2,4,6-trifluoro-phenyl)-isoxazole-3-carbonyl]-amino}-piperidine-3-carboxylic acid ((R)-1-pyridin-2-yl-ethyl)-amide] | 16
